Measurements taken from patent US5100874A, “Hydroxamic acid tetrapeptide derivatives” (Fuji Yakuhin Kogyo Kabushiki Kaisha, priority 1987, dated 1992).
Where two headings read alike, the source gives them in different places. Square brackets hold non-standard residues; d marks the D form. Peptide text beside a SMILES is read from it. * marks the point of attachment. Benzoyl(4-OH) = O=C(c1ccc(O)cc1)*; 4Abz = Nc1ccc(C(=O)O)cc1; Boc = CC(C)(C)OC(=O)*; Bz = O=C(c1ccccc1)*; NHOH = ON*

Columns and labels:
[1] = target: α-chymotrypsin (Bos taurus, UniProt P00766); assay: Inhibitory activity against α-chymotrypsin (method of Laskowski, thermally denatured casein substrate); format: biochemical; settings: for inhibition at 4000 µM: at 4.0 × 10^-3 M
Procedure: (§1) (3) Inhibitory activity against thermolysin, trypsin and α-chymotrypsin
(§2) This was assayed in accordance with the method of Laskowski [see Meth. Enzymol., 2, 8 (1955)] using a thermally denatured casein as substrate for the respective enzymes (i.e. thermolysin, trypsin and α-chymotrypsin).

[2] = target: T1, thermolysin (Bacillus thermoproteolyticus, UniProt P00800); assay: Inhibitory activity against thermolysin (method of Laskowski, thermally denatured casein substrate); format: biochemical; settings: for inhibition at 4000 µM: at 4.0 × 10^-3 M
T1 sequence (P00800 233-548): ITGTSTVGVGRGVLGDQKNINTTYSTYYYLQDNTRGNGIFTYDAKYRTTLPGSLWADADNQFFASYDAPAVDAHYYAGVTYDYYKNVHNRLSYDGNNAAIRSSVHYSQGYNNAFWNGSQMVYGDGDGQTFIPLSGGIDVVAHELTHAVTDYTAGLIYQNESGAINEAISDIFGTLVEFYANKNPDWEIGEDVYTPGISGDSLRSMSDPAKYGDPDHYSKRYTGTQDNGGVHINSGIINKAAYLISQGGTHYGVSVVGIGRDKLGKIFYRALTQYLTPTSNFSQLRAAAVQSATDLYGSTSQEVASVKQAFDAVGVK
Procedure: as §1, §2

[3] = target: T2, tadpole-derived collagenase (Aquarana catesbeiana, UniProt Q11133); assay: biochemical
T2 construct: collagenase from tadpoles; from tissue
T2 sequence (Q11133 89-384): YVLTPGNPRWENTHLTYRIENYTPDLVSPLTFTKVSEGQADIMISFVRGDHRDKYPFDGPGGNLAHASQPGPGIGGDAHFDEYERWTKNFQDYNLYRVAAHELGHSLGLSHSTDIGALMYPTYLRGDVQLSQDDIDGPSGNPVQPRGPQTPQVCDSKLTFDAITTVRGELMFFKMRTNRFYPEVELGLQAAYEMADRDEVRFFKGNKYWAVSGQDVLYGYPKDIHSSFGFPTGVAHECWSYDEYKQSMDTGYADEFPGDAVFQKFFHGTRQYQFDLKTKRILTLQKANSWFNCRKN
Procedure: (§3) (1) Inhibitory activity against collagenases
(§4) The inhibitory activity against human fibroblast collagenase (collagenase derived from human fibroblasts), tadpole-derived collagenase and bacteria (Clostridium)-derived collagenase was assayed in accordance with the method of Nagai [see Ensho, 4(2), 123 (1984)] using a fluorescence-labeledcollagen (FITC-derivatized bovine type I collagen).

[4] = target: T3, human fibroblast collagenase (Homo sapiens, UniProt P03956); assay: Inhibitory activity against human fibroblast collagenase (method of Nagai, FITC-derivatized bovine type I collagen); format: biochemical
T3 construct: collagenase derived from human fibroblasts; from tissue; host or cells: human fibroblasts
T3 sequence (P03956 100-469): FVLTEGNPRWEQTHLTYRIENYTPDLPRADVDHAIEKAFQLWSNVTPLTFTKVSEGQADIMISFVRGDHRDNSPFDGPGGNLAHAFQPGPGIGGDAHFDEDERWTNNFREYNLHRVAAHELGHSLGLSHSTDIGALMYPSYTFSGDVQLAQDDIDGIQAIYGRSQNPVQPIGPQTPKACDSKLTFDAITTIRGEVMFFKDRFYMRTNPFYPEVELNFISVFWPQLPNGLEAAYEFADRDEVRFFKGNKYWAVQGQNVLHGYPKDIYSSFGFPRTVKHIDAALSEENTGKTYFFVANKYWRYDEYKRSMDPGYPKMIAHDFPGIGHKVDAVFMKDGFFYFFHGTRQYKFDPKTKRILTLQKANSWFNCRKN
Procedure: as §3, §4

[5] = test system: bacteria (Clostridium)-derived collagenase; assay: Inhibitory activity against bacteria (Clostridium)-derived collagenase (method of Nagai, FITC-derivatized bovine type I collagen); format: biochemical
Procedure: as §3, §4

[6] = test system: trypsin; assay: Inhibitory activity against trypsin (method of Laskowski, thermally denatured casein substrate); format: biochemical
Procedure: as §1, §2

[7] = test system: mice; assay: Acute toxicity test (LD50) in mice; format: in vivo
Description: The toxicity of the new peptide compounds of this invention is as follows:
Acute toxicity test (LD50) in mice

[8] = test system: sword bean-derived urease; assay: Inhibitory activity against urease (method of Kobashi et al.); format: biochemical; settings: at 4.0 × 10^-3 M
Procedure: (2) Inhibitory activity against urease
The inhibitory activity against urease was assayed in accordance with the method of Kobashi et al. [see Biochem. Biophys.

[9] = read-out: IC50 Human fibroblast collagenase

Row | Structure (SMILES) | IC50 [3] [µM] | IC50 [4, 9] [µM] | inhibition at 4000 µM [2] [%] | LD50 Intraperitoneal administration [7] [mg/kg] | LD50 Intravenous administration [7] [mg/kg] | other results
1 | CC(C)C[C@H](NC(=O)[C@@H]1CCCN1C(=O)CNC(=O)OC(C)(C)C)C(=O)N[C@H](C(=O)NO)C(C)C [Example 18, BocGlyProLeuValNHOH] (Boc-GPLV-{NHOH}) | 9.8 | 3.1 |  |  |  | inhibition at 4000 µM [1]: 0%; inhibition at 10100 µM ([2]; at 1.01 × 10^-2 M): 50%
2 | CC(C)C[C@@H](NC(=O)[C@@H]1CCCN1C(=O)CNC(=O)c1ccccc1)C(=O)N[C@H](C)C(=O)NO [Example 35, BzGlyPro-D-Leu-D-AlaNHOH] (Bz-GP[dL][dA]-{NHOH}) | 3.1 |  | 38 |  |  | inhibition at 100 µM ([1]; at 1.0 × 10^-4 M): 12.8%; IC50 [4]: 6.4 µM
3 | CC(C)C[C@@H](NC(=O)[C@@H]1CCCN1C(=O)CNC(=O)c1ccc(N)cc1)C(=O)N[C@H](C)C(=O)NO [Example 6] (H-[4Abz]GP[dL][dA]-{NHOH}; N-terminus and C-terminus assumed) |  | 1.28 | 26.8 | > 2000 | > 200 | inhibition at 2000 µM ([1]; at 2.0 × 10^-3 M): 26.4%; Inhibition (%) Bacterial collagenase ([5]; at 2.0 × 10^-4 M): 7.1%; Inhibition (%) Trypsin ([6]; at 2.0 × 10^-3): 6.5%; Inhibition (%) Urease [8]: 2.0%
4 | CC(C)C[C@@H](NC(=O)[C@@H](CC(C)C)NC(=O)[C@@H]1CCCN1C(=O)CN1C(=O)c2ccccc2C1=O)C(=O)NO [Example 40, PTHGlyPro-D-Leu-D-LeuNHOH] |  | 3.6 | 32.2 |  |  | inhibition at 10000 µM ([1]; at 1.0 × 10^-2 M): 22.3%; Inhibition (%) Bacterial collagenase ([5]; at 4.0 × 10^-3 M): 20.7%; Inhibition (%) Trypsin ([6]; at 1.0 × 10^-2): 21.6%; IC50 ([3]; read-out: IC50 Tadpole collagenase): 3.1 µM; Inhibition (%) Urease [8]: 3.3%
5 | CC(C)C[C@H](NC(=O)[C@@H]1CCCN1C(=O)CNC(=O)c1ccccc1)C(=O)N[C@@H](C)C(=O)NO [Example 34, BzGlyProLeuAlaNHOH] (Bz-GPLA-{NHOH}) | 7.7 |  | 35 |  |  | inhibition at 200 µM ([1]; at 2.0 × 10^-4 M): 0%; IC50 [4]: 2.7 µM
6 | CC(C)C[C@H](NC(=O)[C@@H]1CCCN1C(=O)CNC(=O)c1ccc(N)cc1)C(=O)N[C@@H](C)C(=O)NO [Example 41, AcOH.ABAGlyProLeuAlaNHOH] (H-[4Abz]GPLA-{NHOH}) | 4 | 3.7 |  | > 2000 | > 200 | inhibition at 20 µM ([1]; at 2.0 × 10^-5 M): 27.3%; inhibition at 20 µM ([2]; at 2.0 × 10^-5 M): 4%
7 | CC(C)C[C@@H](NC(=O)[C@@H]1CCCN1C(=O)CNC(=O)c1ccc(O)cc1)C(=O)N[C@H](C)C(=O)NO [Example 7, p-Hydroxybenzoyl-glycyl-L-prolyl-D-leucyl-D-alanylhydroxamic acid] ({Benzoyl(4-OH)}-GP[dL][dA]-{NHOH}) | 1.05 | 1.18 | 60.4 | > 2000 | > 200 | inhibition at 4000 µM [1]: 22.3%
